Data from PMC7329984, “A Broad Temperature Active Lipase Purified From a Psychrotrophic Bacterium of Sikkim Himalaya With Potential Application in Detergent Formulation” (Frontiers in Bioengineering and Biotechnology, 2020).

Key:
[1] = tested on: T1, ERMR1:04 lipase; assay: p-nitrophenol release at […] nm; Lineweaver-Burk plot; type: biochemical, Chryseobacterium polytrichastri; details: 50 mM Tris pH 8, 37°C; 0.025-0.3 mM substrate
T1 construct: gene alpha/beta hydrolase; native extracellular enzyme purified from culture supernatant (ammonium sulfate, Sephadex G-100, Octyl-Sepharose); gene not firmly identified: MALDI top hit alpha/beta hydrolase of Solibacillus sp

[2] = target: extracellular lipase of Chryseobacterium polytrichastri ERMR1:04 (Chryseobacterium polytrichastri ERMR1:04 (endogenous, secreted)); assay: native gel or EMSA; 10% native PAGE of the Octyl-Sepharose purified lipase (250 kDa band) compared with 12% SDS-PAGE (39.8 kDa band)

| Km [1] | stoichiometry N [2] | Compound |
| --- | --- | --- |
| 104 µM |  | CCCCCCCCCCCCCCCC(=O)Oc1ccc([N+](=O)[O-])cc1 [pNPP, p-nitrophenyl palmitate] |
|  | 6 | extracellular lipase of Chryseobacterium polytrichastri ERMR1:04 (enzyme) |
